This is an account of results in US20190040063A1, “TRICYCLIC COMPOUND FOR BROMODOMAIN-CONTAINING PROTEIN INHIBITOR AND PREPARATION PHARMACEUTICAL COMPOSITION, AND APPLICATION THEREOF” (CHIA TAI TIANQING PHARMACEUTICAL GROUP CO., LTD., priority 2016, published 2019).

One assay addresses T1, BRD4 (Homo sapiens, UniProt O60885).
T1 construct: GST-BRD4 (51-462) (purchased from Cisbio); purchased Cisbio
Description: In vitro enzymatic activity assay: inhibition of BRD4 enzyme binding reaction by HTRF. As to conditions: GST-BRD4 (51-462) 1 nM, acetylated short peptide 100 nM, 23° C., 60 min. The method, then: IC50 values of the compounds of the present application in inhibiting BRD4 enzyme binding reaction were determined by homogeneous time resolved fluorescence (HTRF). A compound was serially diluted 5-fold with 100% DMSO starting from 1 mM (totally 7 concentrations). 2 μL of the compound at each concentration was added into 48 μL of a reaction buffer solution (20 mM HEPES pH7.5, 150 mM NaCl, 5 mM DTT, 0.005% Tween 20 and 100 μg/ml BSA) to be diluted and fully mixed. Then 2.5 μL of the resulting mixture was added to a 384-well plate (OptiPlate-384, purchased from PerkinElmer), 5 μL of GST-BRD4 (51-462) (purchased from Cisbio) (final concentration: 1 nM) was added, and the resulting mixture was centrifuged, and fully mixed. Then 2.5 μL of a short peptide Biotin-AHA-SGRGK(Ac)GGK-(Ac)GLGK(Ac)GGAK(Ac)RHRKV) (synthesized by GL Biochem (Shanghai) Ltd) (final concentration: 100 nM) was added to initiate the reaction (total reaction volume: 10 μL). The 384-well plate was placed in an incubator at 23° C. to react for 60 min, and then 5 μL of Eu3+ cryptate-labeled anti-GST antibody (purchased from Cisbio) and 5 μL of Streptavidin-XL-665 (purchased from Cisbio) were added to terminate the reaction. After an additional 1 hour incubation in the incubator, the fluorescence values (excited at 320 nm, emitted light at 665 nm and 620 nm being detected, and the ratio of the two being the enzyme binding signal) were read on Envision (purchased from PerkinElmer). The binding strength of each compound to the BRD4 protein was determined respectively at 7 concentrations, and the data were calculated with GraphPad Prism software to obtain the IC50 value of the compound.
For orientation: TR-FRET usually uses a lanthanide donor and a delayed reading to cut background.

The subject of the next assay is MV4-11 cells. Nature of the assay: Cell proliferation activity assay (Cell-Titer Blue). Type of assay: cell-based. The conditions noted are these: Homo sapiens, inhibiting cell proliferation, 72 h co-incubation. On the procedure: Human acute […] leukemia cell line MV4-11 cells were cultured in PRIM1640 medium plus 10% fetal bovine serum (FBS, purchased from Biological Industries, BI) and 1% penicillin/streptomycin double antibody solution (P/S, purchased from Life Technology) at 37° C. with 5% CO2. On the day before the compound was tested, the MV4-11 cells were spread in a 96-well plate (purchased from Corning) at a concentration of 8,000 cells/195 μL/well. On the next day, the compound was serially diluted 3-fold with 100% DMSO starting from 10 mM (totally 10 concentrations). 2 μL of the resulting mixture at each concentration was diluted with 48 μL of PRIM1640 medium (purchased from Life Technology). 5 μL of the diluted compound at each concentration was added to the spread cell suspension, and the compound and cells were co-incubated in a cell incubator for 72 h (3 days), and then incubated for additional 4 h after adding 35 μL of Cell-Titer Blue reagent (purchased from Promega). Then the fluorescence values (excited at 560 nm, detected at 590 nm) were read on Flexstation III (purchased from Molecular Devices), and the data were calculated with GraphPad Prism software to obtain the IC50 value of the compound in inhibiting cell proliferation.

One may read the IC50 as the midpoint of a concentration-inhibition curve.

Some results are limits rather than exact numbers.

`COc1ccc2c(n1)c1ncc(-c3c(C)noc3C)cc1n2C(c1ccccc1)C1CCOCC1` (stereo not drawn) [Compound 1, 4-{8-Methoxy-5-[phenyl(tetrahydro-2H-pyran-4-yl)methyl]-5H-pyrrolo[3,2-b:4,5-b′]dipyridin-3-yl}-3,5-dimethylisoxazole] displayed an IC50 at BRD4 of under 2 nM. Same read-out and setting: next, `CCOC(=O)c1cc2c(cn1)c1ncc(-c3c(C)noc3C)cc1n2C(c1ccccc1)C1CCOCC1` (stereo not drawn) [Compound 3, Ethyl 3-(3,5-dimethylisoxazol-4-yl)-5-[phenyl(tetrahydro-2H-pyran-4-yl)methyl]-5H-pyrrolo[2,3-b:4,5-c′]dipyridine-7-carboxylate]: under 2 nM. For the compound `Cc1noc(C)c1-c1cnc2c3cnc(C(C)(C)O)cc3n(C(c3ccccc3)C3CCOCC3)c2c1` (stereo not drawn) [Compound 4, 2-{3-(3,5-Dimethylisoxazol-4-yl)-5-[phenyl(tetrahydro-2H-pyran-4-yl)methyl]-5H-pyrrolo[3,2-b:4,5-c′]dipyridin-7-yl}propan-2-ol], the IC50 at BRD4 was under 2 nM; in the assay with MV4-11 cells, under 10 nM. `Cc1noc(C)c1-c1cnc2c3ccc(C(C)(C)O)nc3n(C(c3ccccc3)C3CCOCC3)c2c1` (stereo not drawn) [Compound 6, 2-{3-(3,5-Dimethylisoxazol-4-yl)-5-[phenyl(tetrahydro-2H-pyran-4-yl)methyl]-5H-pyrrolo[2,3-b:4,5-b′]dipyridin-7-yl}propan-2-ol] registered an IC50 on BRD4 of under 2 nM. Still for that read-out and setting: next, `CCOC(=O)c1cc2c(cn1)c1ncc(-c3c(C)noc3C)cc1n2[C@H](c1ccccc1)C1CCOCC1` [Compound 9, Ethyl (S)-3-(3,5-dimethylisoxazol-4-yl)-5-[phenyl(tetrahydro-2H-pyran-4-yl)methyl]-5H-pyrrolo[3,2-b:4,5-c′]dipyridine-7-carboxylate]: under 2 nM. Take `Cc1noc(C)c1-c1cnc2c3cnc(C(C)(C)O)cc3n([C@H](c3ccccc3)C3CCOCC3)c2c1` [Compound 10, (S)-2-{3-(3,5-dimethylisoxazol-4-yl)-5-[phenyl(tetrahydro-2H-pyran-4-yl)methyl]-5H-pyrrolo[3,2-b:4,5-c′]dipyridin-7-yl}propan-2-ol]: the 50% inhibitory concentration (IC50) at BRD4 is under 2 nM; in the assay on MV4-11 cells, under 10 nM.

Regarding `Cc1noc(C)c1-c1cnc2c3cnc(C(C)(C)O)cc3n([C@@H](c3ccccc3)C3CCOCC3)c2c1` [Compound 12, (R)-2-{3-(3,5-dimethylisoxazol-4-yl)-5-[phenyl(tetrahydro-2H-pyran-4-yl)methyl]-5H-pyrrolo[3,2-b:4,5-c′]dipyridin-7-yl}propan-2-ol], the IC50 on BRD4 was under 2 nM; in the assay with MV4-11 cells, under 10 nM. For `Cc1noc(C)c1-c1cnc2c3ccc(C(C)(C)O)nc3n([C@H](c3ccccc3)C3CCOCC3)c2c1` [Compound 16, (S)-2-{3-(3,5-dimethylisoxazol-4-yl)-5-[phenyl(tetrahydro-2H-pyran-4-yl)methyl]-5H-pyrrolo[2,3-b:4,5-b′]dipyridin-7-yl}propan-2-ol] the same measures were under 2 nM and under 10 nM. On to `Cc1nnn(C)c1-c1cnc2c3ccc(C(C)(C)O)nc3n(C(c3ccccc3)C3CCOCC3)c2c1` (stereo not drawn) [Compound 20, 2-(3-(1,4-Dimethyl-1H-1,2,3-triazol-5-yl)-5-[phenyl(tetrahydro-2H-pyran-4-yl)methyl]-5H-pyrrolo[2,3-b:4,5-b′]dipyridin-7-yl)propan-2-ol], for which, at BRD4, the half-maximal inhibitory concentration (IC50) is under 2 nM. For `Cc1noc(C)c1-c1cnc2c3ncc(C(C)(C)O)cc3n(C(c3ccccc3)C3CCOCC3)c2c1` (stereo not drawn) [Compound 22, 2-(7-(3,5-Dimethylisoxazol-4-yl)-5-(phenyl(tetrahydro-2H-pyran-4-yl)methyl]-5H-pyrrolo[3,2-b:4,5-b′]dipyridin-3-yl)propan-2-ol], the IC50 was under 2 nM on BRD4 and under 10 nM in the assay with MV4-11 cells. For `Cc1noc(C)c1-c1cc(F)c2c3ncc(C(C)(C)O)cc3n(C(c3ccccc3)C3CCOCC3)c2c1` (stereo not drawn) [Compound 24, 2-{7-(3,5-dimethylisoxazol-4-yl)-9-fluoro-5-[phenyl(tetrahydro-2H-pyran-4-yl)methyl]-5H-pyridino[3,2-b]indol-3-yl}propan-2-ol] the same measures were under 2 nM and under 10 nM. Take `Cc1noc(C)c1-c1cnc2c3ccncc3n(C(c3ccccc3)C3CCOCC3)c2c1` (stereo not drawn) [Compound 37, 3,5-Dimethyl-4-{5-[phenyl(tetrahydro-2H-pyran-4-yl)methyl]-5H-pyrrolo[3,2-b:5,4-c′]dipyridin-3-yl}isoxazole]: the IC50 on BRD4 was under 2 nM. Still for that read-out and setting: next, `CCCC(CCC)n1c2cc(C(C)(C)O)ncc2c2ncc(-c3c(C)noc3C)cc21` [Compound 39, 2-[3-(3,5-Dimethylisoxazol-4-yl)-5-(heptan-4-yl)-5H-pyrrolo[3,2-b:4,5-c′]dipyridin-7-yl]propan-2-ol]: under 2 nM. On the same count and under the same terms, the figure for `Cc1noc(C)c1-c1cnc2c3cnc(C(C)(C)O)cc3n(C(c3ccccc3)c3cscn3)c2c1` (stereo not drawn) [Compound 41, 2-{3-(3,5-Dimethylisoxazol-4-yl)-5-[phenyl(thiazol-4-yl)methyl]-5H-pyrrolo[3,2-b:4,5-c′]dipyridin-7-yl}propan-2-ol] is under 2 nM. On to `Cc1noc(C)c1-c1cnc2c3ccc(O)nc3n(C(c3ccccc3)C3CCOCC3)c2c1` (stereo not drawn) [Compound 43, 3-(3,5-Dimethylisoxazol-4-yl)-5-[phenyl(tetrahydro-2H-pyran-4-yl)methyl]-5H-pyrrolo[2,3-b:4,5-b′]dipyridine-7-ol], for which the IC50 on BRD4 was under 2 nM; with MV4-11 cells, under 10 nM.

Consider `Cc1noc(C)c1-c1cnc2c3ccc(C(N)=O)nc3n(C(c3ccccc3)C3CCOCC3)c2c1` (stereo not drawn) [Compound 50, 3-(3,5-Dimethylisoxazol-4-yl)-5-[phenyl(tetrahydro-2H-pyran-4-yl)methyl]-5H-pyrrolo [2,3-b:4,5-b′]dipyridine-7-carboxamide], for which the concentration for half-maximal inhibition (IC50) at BRD4 was under 2 nM; with MV4-11 cells, under 10 nM. `Cc1noc(C)c1-c1cnc2c3ccc(N)nc3n(C(c3ccccc3)C3CCOCC3)c2c1` (stereo not drawn) [Compound 52, 3-(3,5-Dimethylisoxazol-4-yl)-5-[phenyl(tetrahydro-2H-pyran-4-yl)methyl]-5H-pyrrolo[2,3-b:4,5-b′]dipyridine-7-amine]: the concentration for half-maximal inhibition (IC50) on BRD4 is under 2 nM; in the assay with MV4-11 cells, under 10 nM. The compound `CON(C)C(=O)c1ccc2c3ncc(-c4c(C)noc4C)cc3n(C(c3ccccc3)C3CCOCC3)c2n1` (stereo not drawn) [Compound 55, 3-(3,5-Dimethylisoxazol-4-yl)-N-methoxy-N-methyl-5-[phenyl(tetrahydro-2H-pyran-4-yl)methyl]-5H-pyrrolo[2,3-b:4,5-b′]dipyridine-7-carboxamide] came in with a concentration for half-maximal inhibition (IC50) at BRD4 of under 2 nM. Still for that read-out and setting: next, `CC(=O)c1ccc2c3ncc(-c4c(C)noc4C)cc3n(C(c3ccccc3)C3CCOCC3)c2n1` (stereo not drawn) [Compound 56, 1-{3-(3,5-Dimethylisoxazol-4-yl)-5-[phenyl(tetrahydro-2H-pyran-4-yl)methyl]-5H-pyrrolo[2,3-b:4,5-b′]dipyridin-7-yl}ethyl-1-one]: under 2 nM. On the same count and under the same terms, next, `Cc1noc(C)c1-c1cnc2c3ccc(C(C)O)nc3n(C(c3ccccc3)C3CCOCC3)c2c1` (stereo not drawn) [Compound 57, 1-{3-(3,5-Dimethylisoxazol-4-yl)-5-[phenyl(tetrahydro-2H-pyran-4-yl)methyl]-5H-pyrrolo[2,3-b:4,5-b′]dipyridin-7-yl}ethan-1-ol]: under 2 nM; `Cc1noc(C)c1-c1cnc2c3ccc(C(C)(C)O)nc3n(C(c3ncccc3F)C3CCOCC3)c2c1` (stereo not drawn) [Compound 60]: under 2 nM.
